Source: publication PMC10247784, “Physiological activation of human and mouse bitter taste receptors by bile acids” (Communications Biology, 2023)

Biological target: T1, mouse Tas2r126 (Mus musculus, UniProt P59532)
T1 construct: expressed in transfected cells; host or cells: HEK293T-Gα16gust44
T1 sequence (P59532 1-308): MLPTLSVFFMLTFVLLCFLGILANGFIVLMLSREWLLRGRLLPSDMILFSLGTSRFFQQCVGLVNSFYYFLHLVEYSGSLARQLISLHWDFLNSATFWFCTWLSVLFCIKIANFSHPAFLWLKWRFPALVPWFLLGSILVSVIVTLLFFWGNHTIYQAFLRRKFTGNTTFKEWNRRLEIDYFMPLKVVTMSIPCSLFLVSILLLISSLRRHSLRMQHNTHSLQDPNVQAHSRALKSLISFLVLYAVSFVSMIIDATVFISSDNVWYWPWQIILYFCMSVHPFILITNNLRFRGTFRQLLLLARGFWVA
Assay: Calcium imaging assay (FLIPR), HEK293T-Gα16gust44 cells transfected with mouse Tas2r126
Assay type: cell-based
Conditions: for Δ F/F: Tas2r126
Description: This set of bile acids was chosen because of their commercial availability in high purities, their diversity within the class of bile acids and their previous detection and quantitation in human blood. Stock solutions were prepared in DMSO.
As basal growth medium for the HEK293T-Gα16gust44 cell line[17],[59] served Dulbecco’s modified eagle medium (DMEM) (Thermo Fisher Scientific, Darmstadt, Germany) supplemented with 10 % fetal bovine serum (Sigma-Aldrich, Steinheim, Germany), 2 mM L-glutamine (Sigma-Aldrich, Steinheim, Germany), 100 units/ml penicillin (Sigma Aldrich, Steinheim, Germany) and 100 µg/ml streptomycin (Sigma Aldrich, Steinheim, Germany). Growth conditions were 37 °C, 5 % CO2 and saturated air-humidity[60].
HEK293T-Gα16gust44 cells were seeded on poly-D-lysine (10 µg/ml) coated 96-well plates to reach a confluence of 40-60 % the next day. For transient transfection 150 ng of plasmid DNA containing the receptor of interest and 0.3 µl lipofectamine 2000 (Thermo Fisher Scientific, Darmstadt, Germany) per well were used and transfection took place according to the manual of lipofectamine 2000. […] The empty vector DNA (mock) was transfected as negative control[14],[41].
Cells were loaded using the calcium-sensitive fluorescent dye Fluo-4-AM (Abcam, Cambridge, Great Britain) in the presence of 2.5 mM probenecid (Sigma-Aldrich, Steinheim, Germany) the day after transfection[13],[41]. 1 h after loading, cells were washed with C1 buffer using a BioTek Cell Washer, incubated in the dark for half an hour and washed again. For automated agonist application and measurement of fluorescence changes, a FLIPR^TETRA device (Molecular Devices, San José, United States) was used. Viability of cells was tested by application of 100 nM Somatostatin 14 (Bachem, Bubendorf, Switzerland)[42].
Measured data were negative control corrected by subtracting the signal of the mock-transfected cells and exported to Microsoft Excel using the FLIPR software ScreenWorks 4.2. In Microsoft Excel software, standardization of maximum fluorescence intensities to the basal fluorescence and normalization to the buffer-only control was done to calculate the relative fluorescence changes (ΔF/F).
Initial screening experiments performed in duplicate wells were confirmed by at least one replication and representative traces were selected for display. All dose-response relationships were determined by three independent experiments (biological replicates) performed in duplicates (technical replicates). Threshold concentrations, defined as lowest substance concentrations leading to statistically significant elevated fluorescence changes in receptor-transfected cells compared with empty vector-transfected cells, were determined using SigmaPlot with Student’s t-test to evaluate statistical significance (p < 0.01).

Δ F/F (conc. 0,01 mM): 0.008892
Δ F/F (conc. 0,1 mM): 0.01338
Δ F/F (conc. 0,03 mM): 0.009319
Δ F/F (conc. 0,3 mM): 0.02767
Δ F/F (conc. 0,001 mM): 0.01077
Δ F/F (conc. 1 mM): 0.17
Δ F/F (conc. 0,003 mM): 0.01208
RLU (Time 0 s): 0 RLU
RLU (Time 2 s): -8.029 RLU
RLU (Time 4 s): 1.1384 RLU
RLU (Time 6 s): 10.4148 RLU
RLU (Time 8 s): -13.1228 RLU
RLU (Time 12 s): 17.4885 RLU
RLU (Time 14 s): -0.7257 RLU
RLU (Time 16 s): -10.5283 RLU
RLU (Time 18 s): 16.8146 RLU
RLU (Time 18.781 s): 23.6211 RLU
RLU (Time 20.781 s): -40.338 RLU
RLU (Time 22.781 s): 22.3326 RLU
RLU (Time 24.781 s): 63.7084 RLU
RLU (Time 26.781 s): 76.1804 RLU
RLU (Time 28.781 s): 137.207 RLU
RLU (Time 30.781 s): 214.617 RLU
RLU (Time 32.781 s): 318.834 RLU
RLU (Time 34.781 s): 384.223 RLU
RLU (Time 36.781 s): 455.203 RLU
RLU (Time 38.781 s): 531.38 RLU
RLU (Time 40.781 s): 571.264 RLU
RLU (Time 42.781 s): 599.999 RLU
RLU (Time 44.781 s): 648.8 RLU
RLU (Time 46.781 s): 709.576 RLU
RLU (Time 48.781 s): 742.486 RLU
RLU (Time 50.781 s): 750.019 RLU
RLU (Time 52.781 s): 771.673 RLU
RLU (Time 54.781 s): 762.339 RLU
RLU (Time 56.781 s): 801.528 RLU
RLU (Time 58.781 s): 778.328 RLU
RLU (Time 60.781 s): 814.918 RLU
RLU (Time 62.781 s): 813.898 RLU
RLU (Time 64.781 s): 822.442 RLU
RLU (Time 66.781 s): 857.883 RLU
RLU (Time 68.781 s): 851.231 RLU
RLU (Time 70.781 s): 849.562 RLU
RLU (Time 72.781 s): 871.931 RLU
RLU (Time 74.781 s): 863.674 RLU
RLU (Time 76.781 s): 844.593 RLU
RLU (Time 78.781 s): 886.207 RLU
RLU (Time 80.781 s): 865.546 RLU
RLU (Time 82.781 s): 883.065 RLU
RLU (Time 84.781 s): 898.032 RLU
RLU (Time 86.781 s): 896.748 RLU
RLU (Time 88.781 s): 900.918 RLU
RLU (Time 90.781 s): 874.944 RLU
RLU (Time 92.781 s): 885.691 RLU
RLU (Time 94.781 s): 894.456 RLU
RLU (Time 96.781 s): 901.176 RLU
RLU (Time 98.781 s): 886.538 RLU
RLU (Time 100.781 s): 892.555 RLU
RLU (Time 102.781 s): 881.874 RLU
RLU (Time 104.781 s): 894.645 RLU
RLU (Time 106.781 s): 887.982 RLU
RLU (Time 108.781 s): 886.297 RLU
RLU (Time 110.781 s): 884.059 RLU
RLU (Time 112.781 s): 887.824 RLU
RLU (Time 114.781 s): 848.107 RLU
RLU (Time 116.781 s): 861.685 RLU
RLU (Time 118.781 s): 828.869 RLU
RLU (Time 120.781 s): 825.037 RLU
RLU (Time 122.781 s): 836.581 RLU
RLU (Time 124.781 s): 866.188 RLU
RLU (Time 126.781 s): 858.575 RLU
RLU (Time 128.781 s): 826.803 RLU
RLU (Time 130.781 s): 818.964 RLU
RLU (Time 132.781 s): 847.33 RLU
RLU (Time 134.781 s): 852.99 RLU
RLU (Time 136.781 s): 809.769 RLU
RLU (Time 137.563 s): 804.878 RLU
RLU (Time 143.563 s): 793.514 RLU
RLU (Time 149.563 s): 748.056 RLU
RLU (Time 155.563 s): 797.54 RLU
RLU (Time 161.563 s): 777.219 RLU
RLU (Time 167.563 s): 736.981 RLU
RLU (Time 173.563 s): 734.04 RLU
RLU (Time 179.563 s): 691.98 RLU
RLU (Time 185.563 s): 705.69 RLU
RLU (Time 191.563 s): 730.013 RLU
RLU (Time 197.563 s): 719.476 RLU
RLU (Time 203.563 s): 676.213 RLU
RLU (Time 209.563 s): 680.042 RLU
RLU (Time 215.563 s): 670.332 RLU
RLU (Time 221.563 s): 696.914 RLU
RLU (Time 227.563 s): 687.176 RLU
RLU (Time 233.563 s): 674.703 RLU
RLU (Time 239.563 s): 658.755 RLU
RLU (Time 245.563 s): 686.39 RLU
RLU (Time 293.563 s): 673.116 RLU
RLU (Time 299.563 s): 656.796 RLU
RLU (Time 305.563 s): 663.675 RLU
RLU (Time 311.563 s): 633.551 RLU
RLU (Time 317.563 s): 673.002 RLU
RLU (Time 323.563 s): 666.023 RLU
RLU (Time 329.563 s): 652.752 RLU
RLU (Time 335.563 s): 658.256 RLU
RLU (Time 341.563 s): 702.617 RLU
RLU (Time 347.563 s): 659.503 RLU
RLU (Time 353.563 s): 654.507 RLU
RLU (Time 359.563 s): 650.344 RLU
Activation threshold concentration Tas2r126 (p < 0.01 vs empty vector): 100 µM
Compound: C[C@H](CCC(=O)NCC(=O)O)[C@H]1CC[C@H]2[C@@H]3[C@H](O)C[C@@H]4C[C@H](O)CC[C@]4(C)[C@H]3C[C@H](O)[C@]12C [Glycocholic Acid, glycocholic acid]
